Patent US11324720B2, “Antiproliferative DNA polymerase inhibitor” (NEW YORK MEDICAL COLLEGE, priority 2018, dated 2022)

Target: T1, Pol δ (Homo sapiens, UniProt P28340)
T1 construct: made in house; host or cells: insect cells (Pol δ); E. coli (PCNA)
Assay: poly(dA)/oligo(dT) DNA polymerase assay
Type: biochemical
Excerpt: In order to validate the predicted inhibitory properties of zelpolib, we used the well-established DNA polymerase assay, poly(dA)/oligo(dT) method^1,16, to quantify the inhibition constants. In this assay, a poly(dA) template (up to 4 kilobases) was randomly primed with oligo(dT) primers (40 mer). In the presence of proliferating cell nuclear antigen (PCNA), Pol δ will initiate the elongation of oligo dT primer with the incorporation of radio-labeled deoxythymidine (^3H). The polymerase activity can then be precisely quantified by counting the isotope incorporated.
A model structure of the catalytic domain of human Pol δ was generated based on the structure of yeast pol δ^72 by SWISSPDB^73. The primary sequences of both proteins are conserved and the active sites structures were virtually identical between the model structure and that of yeast pol δ. […] Subsequently, the 300 compounds with the highest scores were selected and analyzed by Pymol. […]
Three different assays are used to analyze DNA polymerase activities and the impact of zelpolib. The poly(dA)/oligo(dT) assay^1,16 were used for precisely quantification as reported. […] [3H]dTMP incorporation was read on liquid scintillation counter. […]

T1 sequence (P28340 whole entry): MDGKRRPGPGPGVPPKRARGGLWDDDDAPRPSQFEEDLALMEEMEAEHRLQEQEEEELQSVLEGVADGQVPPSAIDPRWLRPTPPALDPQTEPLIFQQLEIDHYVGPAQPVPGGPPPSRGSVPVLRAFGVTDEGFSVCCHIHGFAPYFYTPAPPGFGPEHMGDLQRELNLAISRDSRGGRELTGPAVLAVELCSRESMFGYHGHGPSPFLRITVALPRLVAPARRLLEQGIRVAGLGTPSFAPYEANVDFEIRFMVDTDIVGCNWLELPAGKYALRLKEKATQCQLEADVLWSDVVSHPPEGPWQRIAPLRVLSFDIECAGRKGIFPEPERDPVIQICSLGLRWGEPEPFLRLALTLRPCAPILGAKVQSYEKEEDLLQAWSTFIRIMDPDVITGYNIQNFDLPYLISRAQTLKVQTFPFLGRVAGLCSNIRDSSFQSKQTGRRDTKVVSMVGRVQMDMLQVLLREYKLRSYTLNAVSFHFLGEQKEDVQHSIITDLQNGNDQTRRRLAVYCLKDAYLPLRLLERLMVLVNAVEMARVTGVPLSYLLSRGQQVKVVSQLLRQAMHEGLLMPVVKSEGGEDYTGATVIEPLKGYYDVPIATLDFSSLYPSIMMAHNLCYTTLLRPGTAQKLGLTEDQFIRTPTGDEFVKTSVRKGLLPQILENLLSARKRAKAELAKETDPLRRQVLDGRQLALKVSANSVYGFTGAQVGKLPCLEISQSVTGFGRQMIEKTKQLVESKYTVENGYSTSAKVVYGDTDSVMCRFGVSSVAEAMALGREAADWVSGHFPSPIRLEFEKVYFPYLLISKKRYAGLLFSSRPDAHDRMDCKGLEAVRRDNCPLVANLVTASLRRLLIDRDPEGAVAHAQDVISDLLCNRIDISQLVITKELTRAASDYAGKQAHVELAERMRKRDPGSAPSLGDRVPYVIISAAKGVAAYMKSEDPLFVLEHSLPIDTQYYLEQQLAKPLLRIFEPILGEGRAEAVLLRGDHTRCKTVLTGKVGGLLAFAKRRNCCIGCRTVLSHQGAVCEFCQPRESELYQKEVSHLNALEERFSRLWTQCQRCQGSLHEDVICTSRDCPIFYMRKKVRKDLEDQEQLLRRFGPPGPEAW
T1 sequence (P49005 whole entry partner): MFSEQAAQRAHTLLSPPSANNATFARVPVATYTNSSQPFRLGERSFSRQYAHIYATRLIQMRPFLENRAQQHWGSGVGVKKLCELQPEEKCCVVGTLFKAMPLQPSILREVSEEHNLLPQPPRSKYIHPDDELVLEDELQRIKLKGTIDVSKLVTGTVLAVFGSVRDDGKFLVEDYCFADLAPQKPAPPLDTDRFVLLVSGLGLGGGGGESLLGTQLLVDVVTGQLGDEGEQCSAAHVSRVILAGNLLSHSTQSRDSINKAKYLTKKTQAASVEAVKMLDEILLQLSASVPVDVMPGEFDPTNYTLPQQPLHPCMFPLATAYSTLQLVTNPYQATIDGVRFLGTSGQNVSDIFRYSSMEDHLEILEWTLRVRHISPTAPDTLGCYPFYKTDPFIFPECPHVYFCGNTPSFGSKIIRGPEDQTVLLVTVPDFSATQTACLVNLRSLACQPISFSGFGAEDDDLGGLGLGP
T1 sequence (Q15054 whole entry partner): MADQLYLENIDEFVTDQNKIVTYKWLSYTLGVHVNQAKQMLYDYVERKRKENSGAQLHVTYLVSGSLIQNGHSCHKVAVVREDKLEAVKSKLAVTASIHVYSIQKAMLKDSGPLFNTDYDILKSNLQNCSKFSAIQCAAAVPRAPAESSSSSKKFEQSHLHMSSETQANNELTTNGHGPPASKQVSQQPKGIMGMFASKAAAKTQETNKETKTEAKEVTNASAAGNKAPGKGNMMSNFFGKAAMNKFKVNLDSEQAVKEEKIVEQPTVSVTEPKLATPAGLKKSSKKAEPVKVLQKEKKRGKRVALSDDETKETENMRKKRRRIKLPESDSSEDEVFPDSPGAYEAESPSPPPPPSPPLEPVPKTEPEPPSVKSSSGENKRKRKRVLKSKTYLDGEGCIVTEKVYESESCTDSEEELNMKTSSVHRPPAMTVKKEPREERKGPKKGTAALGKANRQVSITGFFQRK
T1 sequence (P12004 whole entry partner): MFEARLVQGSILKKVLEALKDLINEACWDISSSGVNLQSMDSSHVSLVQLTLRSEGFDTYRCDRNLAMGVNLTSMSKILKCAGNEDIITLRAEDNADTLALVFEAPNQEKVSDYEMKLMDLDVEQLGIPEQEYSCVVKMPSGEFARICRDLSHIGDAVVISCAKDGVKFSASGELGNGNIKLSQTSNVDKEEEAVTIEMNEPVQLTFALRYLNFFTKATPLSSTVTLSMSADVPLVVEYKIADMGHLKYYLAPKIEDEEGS

COC(=O)c1cc(-c2ccccc2)sc1NC(=S)NNC(=O)CCc1ccc(O)c(O)c1 [zelpolib]
inhibition of Pol δ activity at 10 μM (assayed at 10 μM): significant inhibition | Ki (non-competitive against dTTP, with PCNA, R^2=0.99, read-out: inhibition constant Ki of Pol δ activity): 4.3 µM
